Data: paper PMC12974487, “Inhibition of FicD-mediated AMPylation and deAMPylation by isoprenoid diphosphates” (Proceedings of the National Academy of Sciences of the …, 2026)

Legend:
[1] = system: Glutathione S-transferase (GST); experiment: DSF specificity control with GST; type: binding; settings: same concentrations as measured for FicD
Description: To ensure specificity of binding to the FicD enzyme, we performed DSF with Glutathione S-transferase (GST) and BiP in the presence of the same increasing metabolite concentrations. […] Like FicD, BiP is an ATP/Mg^2+ dependent protein that could potentially leverage the same binding mode as GPP/FPP. […]
across samples. Extremely low or missing values were floored to metabolite-specific limits of detection. For each dialysis replicate, log₂-transformed abundances were computed, and log₂(fold change) was calculated as the difference between protein and metabolite chambers. Injection replicates were averaged prior to fold-change calculation. Dialysis replicates with missing chamber measurements were excluded. Technical replicates were retained for outlier detection. Metabolites dominated by noise were removed based on comparison of a null model (intercept only) versus a protein-specific model and RMSE > 0.5 across dialysis replicates. Remaining metabolites were classified as “protein signal” and retained for analysis. For each metabolite–protein pair, up to one extreme outlier was removed using a z-score cutoff of 4. Dialysis replicates were then averaged to yield a consensus fold-change per protein–metabolite pair. […]

[2] = molecular target: T1, FicD^E234G (Homo sapiens, UniProt Q9BVA6, E234G); experiment: MIDAS metabolite screen, FicD^E234G; type: binding; settings: cutoff Q < 0.05 and |Log2 corrected fold change| > 2, metabolites 5 µM
T1 construct: soluble ER luminal domain (residues 105 to 458) of wild-type human FicD and three mutants; 6xHis-Sumo (N, cleaved yes); made in house; host or cells: Rosetta(DE3) E. coli
T1 sequence (Q9BVA6 105-458 E234G): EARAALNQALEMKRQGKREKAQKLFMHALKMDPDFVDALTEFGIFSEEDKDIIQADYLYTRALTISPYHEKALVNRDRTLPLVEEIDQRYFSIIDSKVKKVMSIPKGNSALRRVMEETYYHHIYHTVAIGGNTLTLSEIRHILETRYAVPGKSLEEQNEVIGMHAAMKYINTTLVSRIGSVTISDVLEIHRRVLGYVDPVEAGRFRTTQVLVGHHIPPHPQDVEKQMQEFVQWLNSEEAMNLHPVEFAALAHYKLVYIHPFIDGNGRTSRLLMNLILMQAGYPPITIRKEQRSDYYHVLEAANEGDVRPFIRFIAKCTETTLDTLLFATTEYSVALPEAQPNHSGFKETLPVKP
Description: To identify small-molecule metabolite interactions with FicD, we applied an unbiased high-throughput screening approach known as MIDAS ([44]).

**Q.** `CC(C)=CCC/C(C)=C/CC/C(C)=C/COP(=O)(O)OP(=O)(O)O` [FPP, farnesyl-pyrophosphate] was tested. Which “change in GST melt curves or Tm” value [1] did it give?
**A.** Neither GPP nor FPP elicited a change

**Q.** For `Nc1ncnc2c1ncn2[C@@H]1O[C@H](COP(=O)(O)OP(=O)(O)O)[C@@H](O)[C@H]1O` [ADP], which “MIDAS protein-metabolite interaction (enrichment/depletion)” value [2] is on record?
**A.** significantly enriched

**Q.** `CC(C)=CCC/C(C)=C/COP(=O)(O)OP(=O)(O)O` [GPP, geranyl-pyrophosphate] was tested. Which “change in GST melt curves or Tm” value [1] did it give?
**A.** Neither GPP nor FPP elicited a change

**Q.** And the “MIDAS protein-metabolite interaction (enrichment/depletion)” value [2]?
**A.** significantly enriched
